Values after ≈ are worked out from the molar mass of the structure shown. “Also recorded” adds a separate entry of the source.
Legend:
[1] = test system: P. lutzii Pb01-strain ATCC MYA-826; assay: MIC by microdilution (CLSI M27-A3 modified, alamar blue), Pb01; format: cell-based; details: Paracoccidioides lutzii, read-out: Pb01 MIC
Procedure: (§1) Paracoccidioides brasiliensis S1 isolate 18 (Pb18-chronic PCM/São Paulo, Brazil), P. brasiliensis S2 (02-chronic PCM/Venezuela), and P. lutzii Pb01-strain ATCC MYA-826 (acute PCM/Goiânia, Brazil) were obtained from the mycology collection of the Mycology Laboratory, School of Pharmaceutical Sciences and were maintained in Fava-Netto agar medium at 37°C.
(§2) The MIC assay was performed according to the microdilution method described by Clinical and Laboratory Standards Institute ([CLSI, 2008]) document M27-A3 with modifications ([de Paula e Silva et al., 2013]). Alkyl derivatives of protocatechuic acid (hexyl, heptyl, octyl, nonyl, decyl, and dodecyl protocatechuates) were diluted according to CLSI M27-S3. The yeast suspension was adjusted to a final concentration of 1.5 × 10^3 CFU/mL in RPMI-1640 medium (Sigma–Aldrich, St. Louis, MO, United States) in 96-well plates and serial dilutions (from 250 to 0.24 μg/mL) of the compounds were then added; AMB and ITC were used as controls. The plates were incubated on a shaker at 37°C/150 rpm for a specific duration individually determined for each microorganism. The MIC was determined using alamar blue (Sigma–Aldrich, St. Louis, MO, United States) at 530 and 570 nm; a change from the original blue color of the reagent to pink […]. Following 72 or 96 h of incubation. The Minimum Fungicide Concentration (MFC) was determined by transferring an aliquot from the wells to Brain Heart Infusion (BHI) medium supplemented with 2% glucose (Difco, BD Biosciences) plates, which were then incubated at 37°C for 5–7 days. The MFC was defined as the concentration that inhibited growth ([Soares et al., 2014]).

[2] = test system: P. brasiliensis S2 (02) (Pb02); assay: MIC by microdilution (CLSI M27-A3 modified, alamar blue), Pb02; format: cell-based; details: Paracoccidioides brasiliensis, read-out: Pb02 MIC, P. brasiliensis Pb02
Procedure: as §1, §2

[3] = test system: Paracoccidioides brasiliensis S1 isolate 18 (Pb18); assay: MIC by microdilution (CLSI M27-A3 modified, alamar blue), Pb18; format: cell-based; details: read-out: Pb18 MIC
Procedure: as §1, §2

[4] = test system: P. brasiliensis (Pb 18) adhesion to cell line MRC5; assay: Inhibition of P. brasiliensis 18 adhesion to cells (MRC5), flow cytometry; format: cell-based, Paracoccidioides brasiliensis; details: Pb18 on MRC5, 3 h adhesion, 24 h treatment
Procedure: Cells (MRC5) were cultured at 36.5°C in 24-well plates and adjusted to 1 × 10^5 cells per well. A P. brasiliensis suspension (1.5 × 10^3 CFU/mL) was labeled with 10 μM of 5(6)-carboxyfluorescein diacetate N-succinimidyl ester (CFSE; Sigma–Aldrich) and then added to the cells. The plate was incubated for 3 h at 36.5°C under 5% CO2 to enable the adhesion process. Subsequent to treatment, dodecyl and NLS+dodecyl were applied and the plate was incubated for 24 h under the same conditions. The supernatant was removed and the plate was washed with PBS. Then, 300 μL of trypsin (Sigma–Aldrich,) was added and centrifuged. The supernatant was discarded and 500 μL of FACS buffer was added to each tube, for subsequent cell counting by flow cytometry (BD FACS Canto) and BD FACS Diva software analysis ([Mendes-Giannini et al., 1994], [2004]; [Hanna et al., 2000]).

[5] = test system: P. brasiliensis (Pb18) adhesion to fibronectin matrix; assay: Inhibition of P. brasiliensis 18 adhesion to artificial ECM: fibronectin; format: cell-based, Paracoccidioides brasiliensis; details: Pb18, 3 h adhesion, 24 h treatment
Procedure: (§3) Initially, 24-well plates were coated with ECM of fibronectin and laminin, respectively (Sigma–Aldrich, St. Louis, MO, United States) at a concentration of 50 μg/mL for 18 h at 4°C followed by incubation for 1 h at 37°C. The plates were then washed three times with PBS and fungal suspension was added at a concentration of 1.5 × 10^3 CFU/mL, which had been inoculated into the 24-well plate previously sensitized with ECM and incubated at 37°C for 1, 3, or 5 h. Subsequently, the supernatant was removed, the plate was washed with PBS, and then 300 μL of trypsin was added (Sigma). The supernatant was obtained and then centrifuged at 10,000 rpm for 5 min at (4°C). The new supernatant was discarded and 500 μL of FACS buffer was added for subsequent cell counting by flow cytometry (BD FACS Canto and BD FACS Diva software analysis). Following the adhesion period, treatment with the selected compound (dodecyl and NLS+dodecyl) was performed for 24 h at 37°C. RPMI-1640 with L-glutamine and 2% glucose was used to maintain adequate nutritional status. Subsequently, the supernatant was removed and the plate was washed with PBS. Then, 300 μL of trypsin was added and centrifuged. The supernatant was discarded and 500 μL of FACS buffer was added to each tube for subsequent cell counting by flow cytometry (BD FACS Canto and BD FACS Diva software analysis).

[6] = Cytotoxicity assay, 0.4% sulforhodamine B, MRC5; format: cell-based; details: human, MRC5 cells; for IC50 at 24 h: 24 h treatment, SRB; for viability at 24 h: at MIC, read-out: cell viability at the MIC values
Procedure: The cytotoxicity of the protocatechuates was assessed in the MRC5 cell line (MRC5) obtained from the American Type Culture Collection (ATCC; Manassas, VA, United States) and HepG2 cell line obtained from the Biotechnology Laboratory Biotech (UNICAMP, Brazil). The plates were first incubated with 1 × 10^5 cells per well at 36.5°C under 5% CO2 for 24 h to form a cell monolayer ([Husøy et al., 1993]). Compounds were tested at different concentrations ranging from 0.12 to 62.5 μg/mL using serial dilutions in a total volume of 100 μL per well. After the 24 h treatment the cytotoxicity was assessed by the 0.4% sulforhodamine B (SRB) ([Vichai and Kirtikara, 2006]). The assay is sensitive and measures the cellular protein content of adherent or suspension cultures in 96-well plates. Cells were fixed with trichloroacetic acid (TCA) and then stained for 30 min with SRB dissolved in acetic acid. In mildly acidic conditions, SRB binds on basic amino acid residues on TCA-fixed cells. The unbound dye is then removed after washing and the dye bound to the protein is solubilized in basic medium (Tris-base). The absorbance was measured at 570 nm. The result of the percentage of viable cells was performed using the following formula: according to [Rajpoot et al. (2012)] with minor modification.
Viable cells % = (test mean - hite mean/mean negative control - mean white) × 100

[7] = test system: Caenorhabditis elegans wild-type strain N2; assay: Toxicity assay in C. elegans model; format: in vivo; details: 24 h; for toxic effect on C. elegans survival: 0.03 to 125 μg/mL
Procedure: Caenorhabditis elegans wild-type strain N2 was routinely cultured at 22°C on nematode growth medium (NGM) plates seeded with E. coli strain OP50. For the toxicity assay, eggs were harvested to obtain synchronous cultures. After 3 days, worms in the L4 stage were washed with M9 buffer. Then, approximately 20 worms were transferred to each well of a 96-wells plate containing 100 μL of 60% M9 buffer, 40% BHI, 10 μg/mL cholesterol (in ethanol), 200 μg/mL ampicillin, and 90 μg/mL kanamycin. Next, 100 μL of dodecyl protocatechuate, NLS, or NLS+dodecyl were added to the medium with final compound concentrations in each well ranging from 0.03 to 125 μg/mL. The plate was incubated at 22°C for 24 h. Worm survival was evaluated based on mobility and form (worms with a stick shape were considered dead and worms with a sinusoidal shape were considered alive). Images were acquired using an IN Cell Analyzer 2000 (GE Healthcare), microscope (10×).

[8] = test system: P. brasiliensis (Pb18) adhesion to laminin matrix; assay: Inhibition of P. brasiliensis 18 adhesion to artificial ECM: laminin; format: cell-based, Paracoccidioides brasiliensis; details: Pb18, 3 h adhesion, 24 h treatment
Procedure: as §3

CCCCCCCCCCCCOC(=O)c1ccc(O)c(O)c1 [dodecyl, Dodecyl protocatechuate]
MIC [1]: 0.48 µg/mL (≈ 1.49 µM)
MIC [2]: 0.24 µg/mL (≈ 0.744 µM)
MIC [3]: 0.48 µg/mL (≈ 1.49 µM)
inhibition of adhesion to cells [4]: 65%
inhibition of adhesion to the fibronectin matrix [5]: 64%
IC50 at 24 h [6]: 17.9 µg/mL (≈ 55.5 µM)
viability at 24 h [6]: 98%
Survival percentage of C. elegans worms ([7]; 0.03 μg/mL): 100%
Survival percentage of C. elegans worms ([7]; 0.48 μg/mL): 100%
Survival percentage of C. elegans worms ([7]; 7.80 μg/mL): 100%
Survival percentage of C. elegans worms ([7]; 15.60 μg/mL): 100%
Survival percentage of C. elegans worms ([7]; 62.50 μg/mL): 100%
Survival percentage of C. elegans worms ([7]; 125.00 μg/mL): 100%
toxic effect on C. elegans survival [7]: neither dodecyl nor NLS+dodecyl exhibited any toxic effects; also recorded: did not affect worm survival at any concentration
toxic effect on C. elegans survival ([7]; listed as free dodecyl protocatechuate): neither compound exhibited a toxic effect on survival
inhibition of adhesion to the laminin matrix [8]: 75%

CCCCCCCCCOC(=O)c1ccc(O)c(O)c1 [nonyl, nonyl protocatechuate]
MIC [1]: 0.97 µg/mL (≈ 3.46 µM)
MIC [2]: 0.48 µg/mL (≈ 1.71 µM)
MIC [3]: 1.9 µg/mL (≈ 6.78 µM)
IC50 at 24 h [6]: 17.7 µg/mL (≈ 63.1 µM)
viability at 24 h [6]: 96%

CCCCCCCCCCOC(=O)c1ccc(O)c(O)c1 [decyl, decyl protocatechuate]
MIC [1]: 1.9 µg/mL (≈ 6.45 µM)
MIC [2]: 0.48 µg/mL (≈ 1.63 µM)
MIC [3]: 0.97 µg/mL (≈ 3.29 µM)
IC50 at 24 h [6]: 16 µg/mL (≈ 54.3 µM)
viability at 24 h [6]: 98%

CCCCCCCCOC(=O)c1ccc(O)c(O)c1 [octyl, octyl protocatechuate]
MIC [1]: 0.97 µg/mL (≈ 3.64 µM)
MIC [2]: 1.9 µg/mL (≈ 7.13 µM)
MIC [3]: 0.97 µg/mL (≈ 3.64 µM)
IC50 at 24 h [6]: 33.7 µg/mL (≈ 127 µM)
viability at 24 h [6]: 98%

CCCCCCOC(=O)c1ccc(O)c(O)c1 [hexyl, hexyl protocatechuate]
MIC [1]: 7.8 µg/mL (≈ 32.7 µM)
MIC [2]: 1.9 µg/mL (≈ 7.97 µM)
MIC [3]: 3.9 µg/mL (≈ 16.4 µM)
IC50 at 24 h [6]: 29.5 µg/mL (≈ 124 µM)
viability at 24 h [6]: 99%

CCCCCCCOC(=O)c1ccc(O)c(O)c1 [heptyl, heptyl protocatechuate]
MIC [1]: 3.9 µg/mL (≈ 15.5 µM)
MIC [2]: 0.24 µg/mL (≈ 0.951 µM)
MIC [3]: 7.8 µg/mL (≈ 30.9 µM)
IC50 at 24 h [6]: 17.6 µg/mL (≈ 69.8 µM)
viability at 24 h [6]: 65%

C[C@@H]1[C@H](O)[C@@H](C)/C=C/C=C/C=C/C=C/C=C/C=C/C=C/[C@H](O[C@@H]2O[C@H](C)[C@@H](O)[C@H](N)[C@@H]2O)C[C@@H]2O[C@](O)(C[C@@H](O)C[C@@H](O)[C@H](O)CC[C@@H](O)C[C@@H](O)CC(=O)O[C@H]1C)C[C@H](O)[C@H]2C(=O)O [AMB, Amphotericin B, reference compound]
MIC [1]: 0.06 µg/mL (≈ 0.0649 µM)
MIC [3]: 0.13 µg/mL (≈ 0.141 µM)
IC50 at 24 h [6]: 0.22 µg/mL (≈ 0.238 µM)

CCC(C)n1ncn(-c2ccc(N3CCN(c4ccc(OCC5COC(Cn6cncn6)(c6ccc(Cl)cc6Cl)O5)cc4)CC3)cc2)c1=O (stereo not drawn) [ITC, itraconazole, reference compound]
MIC [1]: 0.12 µg/mL (≈ 0.17 µM)
MIC [2]: 0.01 µg/mL (≈ 0.0142 µM)
MIC [3]: 0.02 µg/mL (≈ 0.0283 µM)
IC50 at 24 h [6]: 0.1 µg/mL (≈ 0.142 µM)

— PMC5466964, “Alkyl Protocatechuate-Loaded Nanostructured Lipid Systems as a Treatment Strategy for Paracoccidioides brasiliensis and Paracoccidioides lutzii In Vitro” (Frontiers in Microbiology, 2017)
